Results as given in patent publication US9296720B2, “Carboxamide-substituted heteroaryl-pyrazoles and the use thereof” (AiCuris GmbH & Co. KG, priority 2011, dated 2016).
Where two headings read alike, the source gives them in different places.

Assays:
Format in all cases: cell-based
[1] = test system: HIV-1NL4-3 Wild Type; test: Luminescence reduction assay, MT4 cells infected with HIV-1NL4-3 luciferase reporter virus, wild type; conditions: 2% FCS
Text: (§1) For this assay, HIV-1NL4-3 reporter viruses are used, which carry the luciferase164 gene (lu164) instead of the nef gene. The viruses are generated by transfection of 293T cells with the corresponding proviral pNL4-3 plasmid (Lipofectamine Reagent, Invitrogen, Karlsruhe, Germany). Starting from the proviral plasmid-DNA, viruses with defined resistance mutations in the reverse transcriptase gene are produced with the “QuikChange II XL Site-Directed Mutagenesis Kit” (Stratagene, Cedar Creek, Tex., USA). Among other things, the following mutations are generated: A98G, A98G-K103N-V108I, A98S, F227C, F227L, G190A, G190S, K101E, K101Q-K103N, K103N, K103N-F227L, K103N-G190A, K103N-G190S, K103N-M230L, K103N-N348I, K103N-P225H, K103N-V108I, K103N-V108I-P225H, K103N-V179F-Y181C, K103N-Y181C, K103N-Y181C-G190A, L100I, L100I-K103N, L100I-K103N-V179I-Y181C, L100I-K103N-Y181C, L234I, N348I, P225H, P236L, V106A, V106A-E138K, V106A-F227C, V106A-F227L, V106I, V106I-Y188L, V106M, V108I, V179F-Y181C, V179I, V179I-Y181C, Y181C, Y181C-G190A, Y181C-M230L, Y181I, Y188L. MT4 cells infected with these reporter viruses (NIH AIDS Research and Reference Reagent Program) secrete luciferase into the medium, which makes possible the luminometric quantification of the virus replication.
(§2) For the batch of a 96-well MTP, 3 million MT4 cells are pelletized, suspended in 1 ml of RPMI 1640 medium without phenol red (Invitrogen, Karlsruhe, Germany)/10% FCS/2 mmol of L-glutamine/1% Pen/Strep (Invitrogen, Karlsruhe, Germany), and incubated together with a suitable amount of the corresponding HIV-1NL4-3 reporter virus for 2 hours at 37° C. (pellet infection). Non-adsorbed viruses are then washed out with PBS, the infected cells are pelletized again, and suspended in 8 ml of RPM 11640 medium without phenol red/2% or 10% FCS/2 mmol of L-glutamine/1% Pen/Strep. Therefrom, 80 μl per well is pipetted into a white 96-well MTP in 20 μl of test substance in a suitable dilution. In order to avoid boundary effects, the edge wells of the MTP are not used for substance dilutions. The second vertical row of the MTP contains only infected cells (virus control), and the eleventh vertical row contains only non-infected cells (cell control) in each case in RPMI 1640 medium without phenol red/2% or 10% FCS/2 mmol of L-glutamine/1% Pen/Strep. The other wells of the MTP contain the compounds according to the invention in different concentrations starting from the third vertical row, from which dilution of the test substances is carried out 3^7 times in three steps up to the tenth vertical row. The test substances are dissolved in DMSO, whereby the DMSO final concentration in the test batch is ultimately 1%. The test batches are incubated for 5 days at 37° C./5% CO2, and are luminometrically evaluated after the addition of 15 μl of Lu164-buffer (65 mmol of NaCl, 300 mmol of MES, pH 5.8, 5 mmol of glutathione and 1:200 coelenterazine (5 mg/ml in 30 μM of glutathione/DMSO) (P.J.K. GmbH, Kleinblittersdorf, Germany)). In the virus control, the resulting values are in the range of 1 million RLUs (relative light units), and in the cell control, the resulting values are 300 to 400 RLUs. The EC50 values of the test substances are determined as the concentration of the treated infected cells, in which the virus replication measured in RLUs is 50% of the untreated infected cells.

[2] = test system: HIV-1NL4-3 K103N-Y181C; test: Luminescence reduction assay, MT4 cells infected with HIV-1NL4-3 luciferase reporter virus, RT mutant K103N-Y181C
Text: as §1, §2

[3] = test system: HIV-1LAI Wild Type; test: AlamarBlue viability assay, HIV-1LAI-infected MT4 cells; conditions: 10% FCS
Description: For the batch of a 96-well MTP, 3 million PBLs are pelletized, suspended in 1 ml of RPMI 1640 medium/10% FCS/2 mmol of L-glutamine/1% Pen/Strep, and incubated together with a suitable amount of HIV-1LA1 (NIH AIDS Research & Reference Reagent Program, Germantown, USA) for 2 hours at 37° C. (pellet infection). Non-adsorbed viruses are then washed out with PBS, the infected cells are pelletized again, and suspended in 18 ml of RPMI 1640 medium/10% FCS/2 mmol of L-glutamine/1% Pen/Strep/interleukin-2 (40 U/ml). Therefrom, 180 μl per well is pipetted into a white 96-well MTP in 20 μl of test substance in a suitable dilution. As an alternative, after preparation of the substance dilutions, the HIV is added by pipetting in the MTP together with the cells and is no longer washed out (supernatant infection). In order to avoid boundary effects, the edge wells of the MTP are not used for substance dilutions. The second vertical row of the MTP contains only infected cells (virus control), and the eleventh vertical row contains only non-infected cells (cell control) in each case in RPMI 1640 medium/10% FCS/2 mmol of L-glutamine/1% Pen/Strep/interleukin-2 (40 U/ml). The other wells of the MTP contain the compounds according to the invention in different concentrations starting from the third vertical row, from which dilution of the test substances is carried out 3^7 times in three steps up to the tenth vertical row. The test substances are dissolved in DMSO, whereby the DMSO final concentration in the test batch is ultimately 1%. The test batches are incubated at 37° C./5% CO2. After 5 and 7 days, in each case 50 μl of cell-free supernatant is drawn off from each well in order to determine the amount of p24 contained by means of p24 ELISA (HIV-1 p24^CA Antigen Capture Assay Kit, NCI-Frederick Cancer Research and Development Center, Frederick, USA). From the resulting values of the photometric analysis (450/620 nm), the EC50 values of the test substances are determined as the concentration of the treated infected cells, in which the amount of p24 is 50% of the untreated infected cells.
As an alternative, MT4 cells are used for testing test substances instead of PBLs. HIV-1LA1-infected MT4 cells (MOI 0.01, supernatant infection) are incubated according to the above-described pattern in RPMI 1640 medium with 2% or 10% FCS/2 mmol of L-glutamine/1% Pen/Strep in the presence of test substances for 5 days at 37° C./5% CO2 (20 μl of substance dilution and 80 μl of cells/virus per well). Then, 10 μl of AlamarBlue (Invitrogen, Karlsruhe, Germany) is added to each well, and MTPs are incubated for 3 hours at 37° C., before the fluorimetric analysis is done (544/590 nm). The resulting values are approximately 30,000 in the case of untreated, non-infected cells, and approximately 6,000 in the case of untreated infected cells. In the low concentration range, the EC50 values of the test substances are determined as the concentration of the treated infected cells, in which the fluorescence is 50% of the untreated non-infected cells (in each case relative to the values of the untreated infected cells). In addition, in the high concentration range, the CC50 values of the test substances are determined as the concentration of the treated infected cells, in which the fluorescence is 50% of the untreated, non-infected cells (in each case relative to the values of the untreated infected cells).

[4] = Human immunodeficiency virus 1, MT4, MT4 cells
[5] = Human immunodeficiency virus 1, MT4, read-out: EC50 (μM) MT4 Cells HIV-1NL4-3 K103N-Y181C 2% FCS, MT4 cells, HIV-1NL4-3 K103N-Y181C, 2% FCS

| Compound | EC50 [1, 4] | EC50 [2, 5] | EC50 [3, 4] | EC50 ([1]; MT4 cells) | EC50 ([2]; read-out: EC50 (μM) MT4 Cells HIV-1NL4-3 K103N-Y181C 2% FCS, MT4 cells, HIV-1NL4-3 K103N-Y181C, 2% FCS) | EC50 ([3]; MT4 cells) |
| --- | --- | --- | --- | --- | --- | --- |
| O=C1CN(C(=O)c2cc(-c3cc(Br)cc(OC(F)(F)F)c3)n(-c3ccnc(Cl)c3)n2)CN1 [Example 48, 1-({5-[3-Bromo-5-(trifluoromethoxy)phenyl]-1-(2-chloropyridin-4-yl)-1H-pyrazol-3-yl}carbonyl)imidazolidin-4-one] | 0.01 µM | 0.007 µM | 0.111 µM | – | – | – |
| O=C1CN(C(=O)c2cc(-c3cncc(C(F)(F)F)c3)n(-c3cccc(Cl)c3)n2)CCN1 [Example 109, 4-({1-(3-Chlorophenyl)-5-[5-(trifluoromethyl)pyridin-3-yl]-1H-pyrazol-3-yl}carbonyl)piperazin-2-one] | 0.232 µM | 0.768 µM | 0.246 µM | – | – | – |
| O=C(c1cc(-c2cc(Cl)cc(OC(F)F)c2)n(-c2cccnc2)n1)N1CCSC1 [Example 82, {5-[3-Chloro-5-(difluoromethoxy)phenyl]-1-(pyridin-3-yl)-1H-pyrazol-3-yl}(1,3-thiazolidin-3-yl)methanone] | 0.016 µM | 0.307 µM | 0.348 µM | – | – | – |
| Cc1cc(-n2nc(C(=O)N3CCNC(=O)C3)cc2-c2cc(F)cc(Cl)c2)ccn1 [Example 22, 4-{[5-(3-Chloro-5-fluorophenyl)-1-(2-methylpyridin-4-yl)-1H-pyrazol-3-yl]carbonyl}piperazin-2-one] | 0.375 µM | > 3.3 µM | 3.18 µM | – | – | – |
| O=C1CN(C(=O)c2cc(-c3cc(F)cc(Br)c3)n(-c3cccnc3)n2)CCN1 [Example 91, 4-{[5-(3-Bromo-5-fluorophenyl)-1-(pyridin-3-yl)-1H-pyrazol-3-yl]carbonyl}piperazin-2-one] | 0.006 µM | 0.392 µM | 0.055 µM | – | – | – |
| O=C1CN(C(=O)c2cc(-c3cnc(F)c(Cl)c3)n(-c3ccc(F)c(Cl)c3)n2)CN1 [Example 111, 1-{[1-(3-Chloro-4-fluorophenyl)-5-(5-chloro-6-fluoropyridin-3-yl)-1H-pyrazol-3-yl]carbonyl}imidazolidin-4-one] | 0.03 µM | 0.173 µM | 0.024 µM | – | – | – |
| O=C(c1cc(-c2cc(F)cc(OCC(F)(F)F)c2)n(-c2cccnc2)n1)N1CCS(=O)(=O)C1 [Example 74, (1,1-Dioxido-1,3-thiazolidin-3-yl) {5-[3-fluoro-5-(2,2,2-trifluoroethoxy)phenyl]-1-(pyridin-3-yl)-1H-pyrazol-3-yl}methanone] | 0.004 µM | 0.302 µM | 0.066 µM | – | – | – |
| O=C(c1cc(-c2cc(Br)cc(OC(F)(F)F)c2)n(-c2cccnc2)n1)N1CC[S+]([O-])C1 (racemic) [Example 31-2, {5-[3-Bromo-5-(trifluoromethoxy)phenyl]-1-(pyridin-3-yl)-1H-pyrazol-3-yl}(1-oxido-1,3-thiazolidin-3-yl)methanone] | – | – | – | 0.01 µM | 0.041 µM | 0.336 µM |
| O=C1CN(C(=O)c2cc(-c3ccnc(Cl)c3)n(-c3cccc(Cl)c3)n2)CCN1 [Example 115, 4-{[1-(3-Chlorophenyl)-5-(2-chloropyridin-4-yl)-1H-pyrazol-3-yl]carbonyl}piperazin-2-one] | 0.027 µM | 1.09 µM | 0.352 µM | – | – | – |
| O=C1CN(C(=O)c2cc(-c3cncc(F)c3)n(-c3ccc(F)c(Cl)c3)n2)CCN1 [Example 99, 4-{[1-(3-Chloro-4-fluorophenyl)-5-(5-fluoropyridin-3-yl)-1H-pyrazol-3-yl]carbonyl}piperazin-2-one] | 0.113 µM | 1.31 µM | 0.258 µM | – | – | – |
| O=C(c1cc(-c2cc(Br)cc(OC(F)(F)F)c2)n(-c2ccnc(C(F)(F)F)c2)n1)N1CCS(=O)(=O)C1 [Example 52, {5-[3-Bromo-5-(trifluoromethoxy)phenyl]-1-[2-(trifluoromethyl)pyridin-4-yl]-1H-pyrazol-3-yl}(1,1-dioxido-1,3-thiazolidin-3-yl)methanone] | 0.376 µM | 0.74 µM | > 3.3 µM | – | – | – |
| O=C1CN(C(=O)c2cc(-c3cc(F)cc(Cl)c3)n(-c3cncc(Cl)c3)n2)CCN1 [Example 10] | 0.149 µM | > 3.3 µM | 1.71 µM | – | – | – |
